Measured values reported in patent US12581252B2, “Substituted pyrrolo[3,4-b]pyridines as PI3K-α inhibitors” (Relay Therapeutics, Inc., priority 2020, dated 2026).

Experiments:
H1047R PIK3CA enzyme = H1047R PIK3CA enzyme (Homo sapiens, UniProt P42336, H1047R); test: ADP-Glo Biochemical PIK3CA Kinase Assay
cells = settings: Homo sapiens, MCF-10A, read-out: MCF10A IC50

Sequence of H1047R PIK3CA enzyme (P42336 whole entry H1047R): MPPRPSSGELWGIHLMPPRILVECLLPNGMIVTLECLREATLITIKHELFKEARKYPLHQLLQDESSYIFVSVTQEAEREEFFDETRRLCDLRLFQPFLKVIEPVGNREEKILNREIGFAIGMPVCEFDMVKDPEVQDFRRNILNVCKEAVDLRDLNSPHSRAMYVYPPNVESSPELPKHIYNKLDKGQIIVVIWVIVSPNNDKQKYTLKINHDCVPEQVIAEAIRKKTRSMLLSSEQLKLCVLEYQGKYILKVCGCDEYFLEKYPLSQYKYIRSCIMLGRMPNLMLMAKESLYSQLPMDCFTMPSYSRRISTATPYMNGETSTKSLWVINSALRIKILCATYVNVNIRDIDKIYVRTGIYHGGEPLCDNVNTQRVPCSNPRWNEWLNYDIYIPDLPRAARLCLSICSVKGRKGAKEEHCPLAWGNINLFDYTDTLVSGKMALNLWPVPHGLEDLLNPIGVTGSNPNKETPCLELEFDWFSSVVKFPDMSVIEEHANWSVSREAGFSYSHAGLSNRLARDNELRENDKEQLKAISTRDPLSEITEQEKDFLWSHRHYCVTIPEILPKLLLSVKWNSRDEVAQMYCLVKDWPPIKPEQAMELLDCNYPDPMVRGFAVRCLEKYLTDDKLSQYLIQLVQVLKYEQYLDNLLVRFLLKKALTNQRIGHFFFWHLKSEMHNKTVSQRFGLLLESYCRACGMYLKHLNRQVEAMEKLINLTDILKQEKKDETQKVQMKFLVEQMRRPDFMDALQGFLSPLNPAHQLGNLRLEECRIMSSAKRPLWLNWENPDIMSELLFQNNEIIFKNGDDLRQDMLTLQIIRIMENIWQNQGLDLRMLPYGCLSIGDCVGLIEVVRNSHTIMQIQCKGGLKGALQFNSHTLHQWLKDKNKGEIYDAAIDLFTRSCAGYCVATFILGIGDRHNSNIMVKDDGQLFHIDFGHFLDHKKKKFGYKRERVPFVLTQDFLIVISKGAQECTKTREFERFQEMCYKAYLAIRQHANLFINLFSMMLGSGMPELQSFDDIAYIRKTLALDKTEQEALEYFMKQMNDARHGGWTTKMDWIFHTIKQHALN
Sequence of H1047R PIK3CA enzyme (P27986 whole entry partner): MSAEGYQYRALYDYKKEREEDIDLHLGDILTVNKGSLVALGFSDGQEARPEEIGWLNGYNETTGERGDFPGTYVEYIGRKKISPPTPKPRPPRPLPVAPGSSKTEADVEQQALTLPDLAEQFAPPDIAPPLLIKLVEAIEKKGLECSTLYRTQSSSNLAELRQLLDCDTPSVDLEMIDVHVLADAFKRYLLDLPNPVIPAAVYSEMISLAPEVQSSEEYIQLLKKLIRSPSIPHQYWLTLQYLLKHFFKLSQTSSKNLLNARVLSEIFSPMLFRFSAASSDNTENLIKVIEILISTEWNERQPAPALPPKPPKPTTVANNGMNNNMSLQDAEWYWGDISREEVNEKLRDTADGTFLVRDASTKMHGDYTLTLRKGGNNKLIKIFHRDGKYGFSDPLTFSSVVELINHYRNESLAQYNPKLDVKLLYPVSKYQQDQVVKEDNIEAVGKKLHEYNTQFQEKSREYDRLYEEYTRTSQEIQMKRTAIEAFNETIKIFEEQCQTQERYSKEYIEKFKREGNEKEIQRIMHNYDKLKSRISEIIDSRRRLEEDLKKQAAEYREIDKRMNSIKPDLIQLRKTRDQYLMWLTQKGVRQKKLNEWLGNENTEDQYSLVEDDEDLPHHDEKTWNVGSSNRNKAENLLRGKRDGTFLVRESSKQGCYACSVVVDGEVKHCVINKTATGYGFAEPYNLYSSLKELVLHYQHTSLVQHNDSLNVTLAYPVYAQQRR

For `O=C1NC(c2cc(F)ccc2Cl)c2c(NC(=O)c3nsc4ccccc34)cccc21` (centres unmarked) [Compound I-83], the IC50 (H1047R PIK3CA enzyme) was ≤ 0.1 µM and the IC50 (cells) was < 1 µM.

With `CN(C)c1cc(NC(=O)N2C[C@](O)(C(F)(F)F)c3cc(F)ccc32)c2c(n1)C(=O)N[C@H]2c1cc(F)ccc1Cl` (single isomer, unassigned) [Compound I-2690] the IC50 (H1047R PIK3CA enzyme) was ≤ 0.1 µM and the IC50 (cells) was < 1 µM.

With `N#Cc1c(N)cc(NC(=O)c2cc(F)cc(C(F)(F)F)c2)c2c1C(=O)NC2c1cc(F)ccc1Cl` (centres unmarked) [Compound I-2223] the IC50 (H1047R PIK3CA enzyme) was ≤ 0.1 µM and the IC50 (cells) was < 1 µM.

In the case of `O=C1N[C@H](c2cc(F)ccc2C(F)F)c2c(NC(=O)c3nsc4ccccc34)cccc21` [Compound I-167], the IC50 (H1047R PIK3CA enzyme) is reported as ≤ 0.1 µM and the IC50 (cells) is reported as 1 to 5 µM.

In the case of `O=C(Nc1cc(-c2cc3ncccc3[nH]2)cc2c1C(c1cc(F)ccc1Cl)NC2=O)c1cc(F)cc(C(F)(F)F)c1` (centres unmarked) [Compound I-970], the IC50 (H1047R PIK3CA enzyme) is reported as ≤ 0.1 µM and the IC50 (cells) is reported as < 1 µM.

For `O=C(Nc1cc(-c2cn3ncnc3cn2)cc2c1[C@H](c1cc(F)ccc1C(F)F)NC2=O)c1cc(F)cc(Cl)c1` (single isomer, unassigned) [Compound I-2259], the IC50 (H1047R PIK3CA enzyme) was ≤ 0.1 µM and the IC50 (cells) was < 1 µM.

In the case of `O=C(Nc1cc(-c2nc3cnccc3[nH]2)cc2c1C(c1cc(F)ccc1Cl)NC2=O)c1cc(F)cc(C(F)(F)F)c1` (centres unmarked) [Compound I-1025], the IC50 (H1047R PIK3CA enzyme) is reported as ≤ 0.1 µM and the IC50 (cells) is reported as 1 to 5 µM.

For `CC(O)c1cc(NC(=O)N2CC(O)c3ccccc32)c2c(c1)C(=O)NC2c1cc(F)ccc1Cl` (centres unmarked) [Compound I-2288], the IC50 (H1047R PIK3CA enzyme) was ≤ 0.1 µM and the IC50 (cells) was 10 to 36 µM.

With `C=Cc1cc(NC(=O)c2csc3ccccc23)c2c(c1)C(=O)NC2c1ccccc1C` (centres unmarked) [Compound I-100, N-[6-Ethenyl-3-(2-methylphenyl)-1-oxo-2,3-dihydro-1H-isoindol-4-yl]-1-benzothiophene-3-carboxamide] the IC50 (H1047R PIK3CA enzyme) was ≤ 0.1 µM and the IC50 (cells) was 5 to 10 µM.

For `O=C1N[C@@H](c2cc(F)ccc2Cl)c2c(NC(=O)[C@H]3CCC[C@@H](C(F)(F)F)C3)cc(-c3ccc4ncnn4c3)cc21` [Compound I-2029], the IC50 (H1047R PIK3CA enzyme) was ≤ 0.1 µM and the IC50 (cells) was < 1 µM.

With `NC(=O)c1nc(-c2cc(NC(=O)c3cc(F)cc(C(F)(F)F)c3)c3c(c2)C(=O)NC3c2cc(F)ccc2Cl)cs1` (centres unmarked) [Compound I-1067] the IC50 (H1047R PIK3CA enzyme) was ≤ 0.1 µM and the IC50 (cells) was < 1 µM.

For `COc1nccc(N2CC(c3cc(NC(=O)c4cc(F)cc(C(F)(F)F)c4)c4c(c3)C(=O)NC4c3cc(F)ccc3Cl)C2)n1` (centres unmarked) [Compound I-1162], the IC50 (H1047R PIK3CA enzyme) was ≤ 0.1 µM and the IC50 (cells) was < 1 µM.

With `O=C(Nc1cc(NC2=N[C@H](C(F)(F)F)CO2)cc2c1[C@H](c1cc(F)ccc1Cl)NC2=O)c1cc(F)cc(C(F)(F)F)c1` (single isomer, unassigned) [Compound I-2387] the IC50 (H1047R PIK3CA enzyme) was ≤ 0.1 µM and the IC50 (cells) was 1 to 5 µM.

For `O=C(Nc1cc(-c2cnc3ncnn3c2)cc2c1C(c1cc(F)ccc1Cl)NC2=O)c1cc(F)cc(C(F)(F)F)c1` (centres unmarked) [Compound I-969], the IC50 (H1047R PIK3CA enzyme) was ≤ 0.1 µM and the IC50 (cells) was < 1 µM.

With `O=C1NC(c2cc(F)ccc2Cl)c2c(NC(=O)c3cc(F)cc4c(Cl)c[nH]c34)cccc21` (centres unmarked) [Compound I-1161] the IC50 (H1047R PIK3CA enzyme) was 0.1 to 0.5 µM and the IC50 (cells) was 1 to 5 µM.

In the case of `O=C1N[C@@H](c2cc(F)ccc2Cl)c2c(NC(=O)N3C[C@@H](C(F)F)c4ccccc43)cccc21` (single isomer, unassigned) [Compound I-2334], the IC50 (H1047R PIK3CA enzyme) is reported as ≤ 0.1 µM and the IC50 (cells) is reported as 1 to 5 µM.

With `Cc1ccccc1C1NC(=O)c2cccc(NC(=O)c3coc4ccc(F)cc34)c21` (centres unmarked) [Compound I-19] the IC50 (H1047R PIK3CA enzyme) was 0.5 to 1 µM and the IC50 (cells) was 1 to 5 µM.

For `CC(C)(O)c1cc(NC(=O)c2cc(F)cc(C(F)(F)F)c2)c2c(c1)C(=O)N[C@H]2c1cc(F)ccc1C(F)F` [Compound I-264], the IC50 (H1047R PIK3CA enzyme) was ≤ 0.1 µM and the IC50 (cells) was 1 to 5 µM.

With `Cn1cc(-c2cc(NC(=O)c3cc(F)cc(C(F)(F)F)c3)c3c(c2)C(=O)NC3c2cc(F)ccc2C(F)F)cn1` (centres unmarked) [Compound I-220] the IC50 (H1047R PIK3CA enzyme) was ≤ 0.1 µM and the IC50 (cells) was < 1 µM.

In the case of `O=C(Nc1cc(-c2cncnc2)cc2c1[C@H](c1cc(F)ccc1Cl)NC2=O)c1cc(F)cc(C(F)(F)F)c1` [Compound I-1095], the IC50 (H1047R PIK3CA enzyme) is reported as ≤ 0.1 µM and the IC50 (cells) is reported as < 1 µM.

In the case of `CC(C)(O)CNc1cc(NC(=O)c2cc(F)cc(C(F)(F)F)c2)c2c(c1)C(=O)N[C@@H]2c1cc(F)ccc1Cl` [Compound I-900], the IC50 (H1047R PIK3CA enzyme) is reported as ≤ 0.1 µM and the IC50 (cells) is reported as < 1 µM.

In the case of `C[C@]1(C(=O)Nc2cc(Br)cc3c2[C@@H](c2cc(F)ccc2Cl)NC3=O)CCC[C@@H](C(F)(F)F)C1` (single isomer, unassigned) [Compound I-2261], the IC50 (H1047R PIK3CA enzyme) is reported as ≤ 0.1 µM and the IC50 (cells) is reported as < 1 µM.

With `Cc1cnccc1-c1cc(NC(=O)c2cc(F)cc(C(F)(F)F)c2)c2c(c1)C(=O)N[C@H]2c1cc(F)ccc1Cl` (stereo in doubt) [Compound I-1010] the IC50 (H1047R PIK3CA enzyme) was ≤ 0.1 µM and the IC50 (cells) was < 1 µM.

For `O=C(Nc1cc(Nc2cn[nH]c2)cc2c1C(c1cc(F)ccc1Cl)NC2=O)c1cc(F)cc(C(F)(F)F)c1` (centres unmarked) [Compound I-994], the IC50 (H1047R PIK3CA enzyme) was ≤ 0.1 µM and the IC50 (cells) was < 1 µM.

In the case of `O=C(Nc1cc(OCCO)cc2c1C(c1cc(F)ccc1Cl)NC2=O)c1cc(F)cc(C(F)(F)F)c1` (centres unmarked) [Compound I-1064], the IC50 (H1047R PIK3CA enzyme) is reported as ≤ 0.1 µM and the IC50 (cells) is reported as < 1 µM.

For `O=C(Nc1cc(-c2cccc3nccn23)cc2c1C(c1cc(F)ccc1Cl)NC2=O)c1cc(F)cc(C(F)(F)F)c1` (centres unmarked) [Compound I-1013], the IC50 (H1047R PIK3CA enzyme) was ≤ 0.1 µM and the IC50 (cells) was < 1 µM.

In the case of `O=C(Nc1cc(-c2cnc3nccn3c2)cc2c1[C@H](c1cc(F)ccc1Cl)NC2=O)c1cc(F)cc(C(F)(F)F)c1` [Compound I-884], the IC50 (H1047R PIK3CA enzyme) is reported as ≤ 0.1 µM and the IC50 (cells) is reported as < 1 µM.

With `O=C(Nc1cc(-c2cn[nH]c2)cc2c1[C@H](c1cc(F)ccc1Cl)NC2=O)c1cc(F)cc(C(F)(F)F)c1` [Compound I-1078] the IC50 (H1047R PIK3CA enzyme) was ≤ 0.1 µM and the IC50 (cells) was < 1 µM.

For `CS(=O)(=O)Nc1cc(NC(=O)c2cc(F)cc(C(F)(F)F)c2)c2c(c1)C(=O)NC2c1cc(F)ccc1Cl` (centres unmarked) [Compound I-1159], the IC50 (H1047R PIK3CA enzyme) was ≤ 0.1 µM and the IC50 (cells) was < 1 µM.

With `N#CCc1cc(NC(=O)N2CC(O)(C(F)(F)F)c3cc(F)ccc32)c2c(c1)C(=O)NC2c1cc(F)ccc1Cl` (mixture of isomers) [Compound I-2596] the IC50 (H1047R PIK3CA enzyme) was ≤ 0.1 µM and the IC50 (cells) was < 1 µM.

In the case of `O=C(Nc1cc(-c2cnn(C(F)F)c2)cc2c1[C@H](c1cc(F)ccc1Cl)NC2=O)c1cc(F)cc(C(F)(F)F)c1` (single isomer, unassigned) [Compound I-1740], the IC50 (H1047R PIK3CA enzyme) is reported as ≤ 0.1 µM and the IC50 (cells) is reported as < 1 µM.

With `Cc1ccccc1C1NC(=O)c2cccc(NC(=O)c3csc4ccccc34)c21` (centres unmarked) [Compound I-1, N-(1-Oxo-3-(o-tolyl)isoindolin-4-yl)benzo[b]thiophene-3-carboxamide] the IC50 (H1047R PIK3CA enzyme) was 0.1 to 0.5 µM and the IC50 (cells) was 1 to 5 µM.

For `O=C(Nc1cc(-c2nc3ccccc3[nH]2)cc2c1C(c1cc(F)ccc1Cl)NC2=O)c1cc(F)cc(C(F)(F)F)c1` (centres unmarked) [Compound I-1101], the IC50 (H1047R PIK3CA enzyme) was ≤ 0.1 µM and the IC50 (cells) was < 1 µM.

For `Cn1ccnc1Nc1cc(NC(=O)c2cc(F)cc(C(F)(F)F)c2)c2c(c1)C(=O)NC2c1cc(F)ccc1Cl` (centres unmarked) [Compound I-1075], the IC50 (H1047R PIK3CA enzyme) was ≤ 0.1 µM and the IC50 (cells) was < 1 µM.

For `CNc1cc(NC(=O)N2C[C@](O)(C(F)(F)F)c3cc(F)ccc32)c2c(n1)C(=O)N[C@@H]2c1cc(F)ccc1Cl` (single isomer, unassigned) [Compound I-2644], the IC50 (H1047R PIK3CA enzyme) was ≤ 0.1 µM and the IC50 (cells) was < 1 µM.

For `NCc1cc(NC(=O)N2CC(O)(C(F)(F)F)c3cc(F)ccc32)c2c(c1)C(=O)NC2c1cc(F)ccc1Cl` (centres unmarked) [Compound I-2568], the IC50 (H1047R PIK3CA enzyme) was ≤ 0.1 µM and the IC50 (cells) was 10 to 36 µM.

With `[2H]C1(c2cc(F)ccc2Cl)NC(=O)c2cccc(NC(=O)N3CC(O)(C(F)(F)F)c4cc(F)ccc43)c21` (centres unmarked) [Compound I-2648] the IC50 (H1047R PIK3CA enzyme) was ≤ 0.1 µM and the IC50 (cells) was < 1 µM.
